Results on two molecules are retold here after PMC7911889 (Viruses, 2021).

For orientation: pEC50 means the EC50 on a negative log10 scale, so that one unit is a factor of ten.

pEC50: −log10 of the molar value.

This assay addresses SARS-CoV-2 3CL^pro (Severe acute respiratory syndrome coronavirus 2, UniProt P0DTD1). In kind it is cell-based.

Consider `CC(C)(C)NC(=O)N[C@H](C(=O)N1C[C@H]2[C@@H]([C@H]1C(=O)NC(CC1CCC1)C(=O)C(N)=O)C2(C)C)C(C)(C)C` (stereo partly drawn) [Boceprevir], for which the “Effect on luciferase reporter activity / 3CL^pro inhibition (in words)” value is “clearly inhibited SARS-CoV-2 3CL^pro”.
For the molecule `CC(NC(=O)[C@H](Cc1ccccc1)NC(=O)OCc1ccccc1)C(=O)CF` (stereo partly drawn) [Z-FA-FMK], the “Effect on luciferase reporter activity / 3CL^pro inhibition (in words)” value is “clearly inhibited SARS-CoV-2 3CL^pro”. Also, the negative-log EC50 (pEC50) (read-out: EC50, SARS-CoV-2 3CLpro luciferase complementation assay) was 4.58.
